Among the data in PubChem BioAssay AID192 (DTP/NCI, 2004) are T/C values, retold here.

The structures appear in SMILES notation. Where “and” joins values, the source holds several entries; their conditions need not be identical. Equal entries are not always repeated. Toxic doses and inconclusive results are not listed.

This experiment concerns BDF1 mice, B16 melanoma ip, median survival T/C. Briefly: NCI In Vivo Anticancer Drug Screen. Data for tumor model B16 Melanoma (intraperitoneal) in B6D2F1 (BDF1) mice. Conditions: endpoint: median survival time, higher = longer survival. The method, then: The antitumor activity of compounds was measured in mice bearing transplantable tumors. Survival or tumor size were measured and the results are expressed as the measurement made in the treated group (T) divided by the measurement made in the vehicle treated control group (C). The tumor model used in this assay is B16 Melanoma (intraperitoneal) in B6D2F1 (BDF1) mice

Setting [1] is: dose: 100.0 mg/kg/injection, schedule: Q01DX009 (ip), vehicle: Klucel (hydroxypropylcellulose) (HPC).
[2] abbreviates: dose: 200.0 mg/kg/injection, schedule: Q01DX009 (ip), vehicle: Klucel (hydroxypropylcellulose) (HPC).
[3] abbreviates: dose: 400.0 mg/kg/injection, schedule: Q01DX009 (ip), vehicle: Klucel (hydroxypropylcellulose) (HPC).
[4] abbreviates: dose: 100.0 mg/kg/injection, schedule: Q01DX009 (ip), vehicle: saline.
Where [5] appears, read: dose: 200.0 mg/kg/injection, schedule: Q01DX009 (ip), vehicle: saline.
Where [6] appears, read: dose: 400.0 mg/kg/injection, schedule: Q01DX009 (ip), vehicle: saline.
Where [7] appears, read: dose: 25.0 mg/kg/injection, schedule: Q01DX009 (ip), vehicle: Klucel (hydroxypropylcellulose) (HPC).
Setting [8] is: dose: 50.0 mg/kg/injection, schedule: Q01DX009 (ip), vehicle: Klucel (hydroxypropylcellulose) (HPC).
[9] abbreviates: dose: 12.5 mg/kg/injection, schedule: Q01DX009 (ip), vehicle: saline with Tween-80.
[10] abbreviates: dose: 50.0 mg/kg/injection, schedule: Q01DX009 (ip), vehicle: saline with Tween-80.
Setting [11] is: dose: 100.0 mg/kg/injection, schedule: Q01DX009 (ip), vehicle: saline with Tween-80.
Where [12] appears, read: dose: 50.0 mg/kg/injection, schedule: Q01DX009 (ip), vehicle: saline.
Where [13] appears, read: dose: 25.0 mg/kg/injection, schedule: Q01DX009 (ip), vehicle: saline.

In the case of `Cc1ccc(NC(=O)C(Cl)(Cl)Cl)cc1C`, the T/C is, setting by setting: under setting [1], 96 % of control; under setting [2], 96 % of control; under setting [3], 96 % of control.
On to `O=S(=O)(NC(=S)S)c1ccccc1`, for which the T/C (dose: 12.5 mg/kg/injection, schedule: Q01DX009 (ip), vehicle: water) was 91 % of control; the T/C (dose: 25.0 mg/kg/injection, schedule: Q01DX009 (ip), vehicle: water) was 94 % of control; the T/C (dose: 50.0 mg/kg/injection, schedule: Q01DX009 (ip), vehicle: water) is 86 % of control.
In the case of `CC(NC(=O)C(F)(F)F)C(=O)O` (configuration not stated), the T/C was 100 % of control (dose: 100.0 mg/kg/injection, schedule: Q04DX003 (ip), vehicle: saline) and 86 % of control (dose: 200.0 mg/kg/injection, schedule: Q04DX003 (ip), vehicle: saline).
In the case of `O=C(O)CCC1CCC(=O)OC1=O` (configuration not stated), the T/C by setting is: under setting [4], 112 % of control; under setting [5], 113 % of control; under setting [6], 113 % of control.
Take `O=C(Nc1ccccc1)Nc1cc(C(F)(F)F)ccc1Cl`: the T/C (dose: 100.0 mg/kg/injection, schedule: Q04DX009 (ip), vehicle: Klucel (hydroxypropylcellulose) (HPC)) is 109 % of control; the T/C (dose: 200.0 mg/kg/injection, schedule: Q04DX003 (ip), vehicle: carboxymethylcellulose (CMC)) is 90 % of control; the T/C (dose: 200.0 mg/kg/injection, schedule: Q04DX009 (ip), vehicle: Klucel (hydroxypropylcellulose) (HPC)) is 106 % of control; the T/C (dose: 400.0 mg/kg/injection, schedule: Q04DX003 (ip), vehicle: carboxymethylcellulose (CMC)) was 92 % of control; the T/C (dose: 400.0 mg/kg/injection, schedule: Q04DX009 (ip), vehicle: Klucel (hydroxypropylcellulose) (HPC)) was 86 % of control.
Consider `O=C(/C=C/C(=O)Oc1ccc(Cl)cc1Cl)Oc1ccc(Cl)cc1Cl`, for which the T/C was 100 % of control under setting [7]; 91 % of control under setting [8]; 88 % of control and 94 % of control under setting [1].
In the case of `CCOC(=O)C(=O)c1c(C)[nH]c2ccccc12`, the T/C is, setting by setting: under setting [1], 113 % of control; under setting [2], 106 % of control; under setting [3], 106 % of control.
For the compound `CCCCCCCCCCCCCCCCCC(=O)[O][Hg][c]1ccccc1`, the T/C reads like this: (dose: 6.25 mg/kg/injection, schedule: Q01DX009 (ip), vehicle: saline with Tween-80) 97 % of control; under setting [9], 105 % of control.
For the compound `Nc1ccccc1SC1CC(=O)N(c2ccc(I)cc2)C1=O` (configuration not stated), the T/C is 100 % of control under setting [9]; 108 % of control under setting [7]; 97 % of control under setting [8]; 88 % of control under setting [10]; 88 % of control and 100 % of control under setting [1].
Turning to `CC(=O)OC1C(O)C(C)OC(OC2C(OC(=O)C3CCC4C(C3)OC3(CC(OC(=O)/C=C/c5ccccc5)C(C)CO3)C43CO3)OC(C)C(O)C2OC(C)=O)C1O` (configuration not stated), the T/C reads like this: (dose: 0.5 mg/kg/injection, schedule: Q01DX009 (ip), vehicle: saline + alcohol) 110 % of control; (dose: 1.0 mg/kg/injection, schedule: Q01DX009 (ip), vehicle: saline + alcohol) 120 % of control; (dose: 8.0 mg/kg/injection, schedule: Q01DX009 (ip), vehicle: saline + alcohol) 152 % of control and 158 % of control; (dose: 16.0 mg/kg/injection, schedule: Q01DX009 (ip), vehicle: saline + alcohol) 151 % of control.
For the compound `CCCCCCCCN(C)N=Nc1ccc(Cl)cc1C(=O)O`, the T/C by setting is: under setting [10], 103 % of control; under setting [11], 107 % of control.
On to `COc1ccc(C(C#N)CC(=O)c2ccc3c(c2)OCO3)cc1OC` (configuration not stated), for which the T/C under setting [4] is 103 % of control, the T/C under setting [5] was 100 % of control and the T/C under setting [6] is 100 % of control.
On to `CN(C)CCCCO`, for which the T/C runs as follows: under setting [12], 96 % of control; under setting [4], 96 % of control; under setting [5], 89 % of control.
Take `CN(C)c1ncnc2c1ncn2C1OC(CO)C(N)C1O` (configuration not stated): the T/C is 111 % of control under setting [13] and 118 % of control under setting [12].
For the compound `CC(C)NNC(=O)C(N)CO` (configuration not stated), the T/C reads like this: under setting [13], 104 % of control; under setting [12], 116 % of control; under setting [4], 104 % of control; under setting [5], 111 % of control.
`Cc1cc(=NO)cc(C)n1O`: the T/C is, setting by setting: (dose: 25.0 mg/kg/injection, schedule: Q01DX009 (ip), vehicle: distilled water + alcohol) 100 % of control; (dose: 50.0 mg/kg/injection, schedule: Q01DX009 (ip), vehicle: distilled water + alcohol) 98 % of control; (dose: 200.0 mg/kg/injection, schedule: Q01DX009 (ip), vehicle: distilled water + alcohol) 86 % of control.
For the compound `CCCCCCCC(=O)CC(C)C`, the T/C is 106 % of control under setting [1] and 86 % of control under setting [2].
`O=P(O)(O)OCCCl`: the T/C (dose: 100.0 mg/kg/injection, schedule: Q04DX003 (ip), vehicle: Klucel (hydroxypropylcellulose) (HPC)) was 100 % of control; the T/C (dose: 200.0 mg/kg/injection, schedule: Q04DX003 (ip), vehicle: Klucel (hydroxypropylcellulose) (HPC)) was 94 % of control; the T/C (dose: 400.0 mg/kg/injection, schedule: Q04DX003 (ip), vehicle: Klucel (hydroxypropylcellulose) (HPC)) was 103 % of control.
For the compound `CCC12C=CCN3CCC4(c5cc(C6c7[nH]c8ccccc8c7CCN7CCCCC67)c(OC)cc5N(C)C4C(O)(C(=O)OC)C1OC(C)=O)C32` (configuration not stated), the T/C was 98 % of control (dose: 0.06 mg/kg/injection, schedule: Q01DX009 (ip), vehicle: other); 96 % of control (dose: 0.13 mg/kg/injection, schedule: Q01DX009 (ip), vehicle: other); 96 % of control (dose: 0.25 mg/kg/injection, schedule: Q01DX009 (ip), vehicle: other); 108 % of control (dose: 0.5 mg/kg/injection, schedule: Q01DX009 (ip), vehicle: other); 108 % of control (dose: 1.0 mg/kg/injection, schedule: Q01DX009 (ip), vehicle: other); 108 % of control (dose: 2.0 mg/kg/injection, schedule: Q01DX009 (ip), vehicle: other).
As for `c1ccc2c(c1)ccc1c[n+]3ccccc3cc12`, the T/C (dose: 0.25 mg/kg/injection, schedule: Q01DX009 (ip), vehicle: saline) is 114 % of control; the T/C (dose: 0.5 mg/kg/injection, schedule: Q01DX009 (ip), vehicle: saline) was 100 % of control; the T/C (dose: 1.0 mg/kg/injection, schedule: Q01DX009 (ip), vehicle: saline) is 97 % of control.
Turning to `CCOC(=O)C(=O)CC(=O)/C=C/c1ccccc1`, the T/C is, setting by setting: under setting [10], 94 % of control; under setting [11], 97 % of control; (dose: 200.0 mg/kg/injection, schedule: Q01DX009 (ip), vehicle: saline with Tween-80) 97 % of control.
In the case of `CCN(CC)CCOC(=O)Cc1cccc2c(=O)cc(-c3ccccc3)oc12`, the T/C reads like this: under setting [13], 109 % of control; under setting [12], 113 % of control.
Consider `CC1CC(C)(O)CC(C(O)CC2CC(=O)NC(=O)C2)C1=O` (configuration not stated), for which the T/C was 111 % of control (dose: 0.98 mg/kg/injection, schedule: Q04DX003 (ip), vehicle: saline); 100 % of control (dose: 1.4 mg/kg/injection, schedule: Q04DX003 (ip), vehicle: saline); 91 % of control (dose: 2.0 mg/kg/injection, schedule: Q04DX003 (ip), vehicle: saline); 102 % of control (dose: 2.86 mg/kg/injection, schedule: Q04DX003 (ip), vehicle: saline).
Take `ClCCCCCCBr`: the T/C is, setting by setting: (dose: 75.0 mg/kg/injection, schedule: Q01DX009 (ip), vehicle: Klucel (hydroxypropylcellulose) (HPC)) 122 % of control; (dose: 150.0 mg/kg/injection, schedule: Q01DX009 (ip), vehicle: Klucel (hydroxypropylcellulose) (HPC)) 122 % of control; (dose: 300.0 mg/kg/injection, schedule: Q01DX009 (ip), vehicle: Klucel (hydroxypropylcellulose) (HPC)) 105 % of control.
In the case of `COC(=O)C1=C(O)CN(C)C1=O`, the T/C by setting is: (dose: 37.5 mg/kg/injection, schedule: Q04DX003 (ip), vehicle: saline) 102 % of control; (dose: 75.0 mg/kg/injection, schedule: Q04DX003 (ip), vehicle: saline) 100 % of control; (dose: 150.0 mg/kg/injection, schedule: Q04DX003 (ip), vehicle: saline) 108 % of control.
With `COc1cc(C(=O)N=Nc2c(O)[nH]c3ccc(Br)cc23)cc(OC)c1OC`, the T/C under setting [7] is 98 % of control, the T/C under setting [8] was 109 % of control and the T/C under setting [1] is 86 % of control.
